According to the OligoGym collection:
Values joined by “and” are separate entries in the source; they are usually repeats but may differ in a detail not shown here. Equal values may be shown once. After the bases stand the sugars from the 5' end (letter, count) and the backbone: PS all phosphorothioate, else s phosphorothioate and o phosphodiester by linkage. Methylation of C is not given here. e = 2'-O-(2-methoxyethyl) (MOE); k = constrained ethyl (cEt); d = 2'-deoxy (DNA)

Biological target: IRF4
Settings: ASO

Sequence | target mRNA inhibition (SK-MEL-28, 4 µM) | further results
CTGAGTTGTACAGGAC (sugars k3 d10 k3, PS) | – | target mRNA inhibition (MM.1R, 0.0625 µM): 4%; target mRNA inhibition (MM.1R, 0.25 µM): 22%; target mRNA inhibition (MM.1R, 1 µM): 55% and 52%; target mRNA inhibition (MM.1R, 4 µM): 81%
CTGATGTGTTCTGGTA (sugars k3 d10 k3, PS) | – | target mRNA inhibition (MM.1R, 0.0625 µM): 14% and 36%; target mRNA inhibition (MM.1R, 0.25 µM): 27% and 41%; target mRNA inhibition (MM.1R, 1 µM): 45% and 53%; target mRNA inhibition (MM.1R, 4 µM): 69% and 70%
CTGCAAACGACAAGTG (sugars k3 d10 k3, PS) | – | target mRNA inhibition (MM.1R, 1 µM): -18%
CTGCAGAACAGACGCG (sugars k3 d10 k3, PS) | 11% | –
CTGCAGTTCACGAAAC (sugars k3 d10 k3, PS) | 38% | –
CTGCATGAGGGTGACA (sugars k3 d10 k3, PS) | 19% | –
CTGCTTGAGGTTTTCC (sugars k2 d9 e3 k2, PS) | – | target mRNA inhibition (MM.1R, 1 µM): 31%
CTGCTTGAGGTTTTCC (sugars k3 d10 k3, PS) | 74% | –
CTGCTTGAGGTTTTCC (sugars kdddddddddkekeke, PS) | – | target mRNA inhibition (MM.1R, 1 µM): 20%
CTGCTTGAGGTTTTCC (sugars kkkdddddddddkeke, PS) | – | target mRNA inhibition (MM.1R, 1 µM): 50%
CTGGACAGCCAAACAA (sugars k3 d10 k3, PS) | 21% | –
CTGGAGAGAACTCATG (sugars k3 d10 k3, PS) | 38% | –
CTGGATTGATGTGATA (sugars k3 d10 k3, PS) | 43% | –
CTGGCACCAAAAGTAC (sugars k3 d10 k3, PS) | 18% | –
CTGGCATTGAGACGGG (sugars k3 d10 k3, PS) | 61% | –
CTGGGTTTTCTGTAGG (sugars k3 d10 k3, PS) | 48% | –
CTGGTAACTGTATGGA (sugars k3 d10 k3, PS) | – | target mRNA inhibition (MM.1R, 1 µM): 17%
CTGGTTCGCGCTCCGG (sugars k3 d10 k3, PS) | 7% | –
CTGTACACTTTGTACG (sugars k3 d10 k3, PS) | 34% | –
CTGTAGGGCGACTAAC (sugars k3 d10 k3, PS) | 49% | –
CTGTTAAGTCCCATCT (sugars k3 d10 k3, PS) | 54% | –
CTGTTACCGATGCTTC (sugars kdddddddddkekeke, PS) | – | target mRNA inhibition (MM.1R, 1 µM): 2% and 24%
CTTAATTCTGGGTTAA (sugars k3 d10 k3, PS) | 53% | –
CTTACTAGGTGCTTGT (sugars k3 d10 k3, PS) | 38% | –
CTTATTATTTATGAGC (sugars k3 d10 k3, PS) | 37% | –

Sequence | target mRNA inhibition (SK-MEL-28, 4 µM) | further results
CTTCAACAGCACTGTC (sugars k3 d10 k3, PS) | 56% | –
CTTCACTGTTAGCTAC (sugars k3 d10 k3, PS) | 51% | –
CTTCAGCAAAGAGGGT (sugars k3 d10 k3, PS) | 59% | –
CTTCCAAGACAGCTTC (sugars k3 d10 k3, PS) | 63% | –
CTTCCCTGAGAAATGG (sugars k3 d10 k3, PS) | 50% | target mRNA inhibition (MM.1R, 0.074 µM): 6%; target mRNA inhibition (MM.1R, 0.222 µM): 2%; target mRNA inhibition (MM.1R, 0.666 µM): 1%; target mRNA inhibition (MM.1R, 2 µM): 4%; target mRNA inhibition (SK-MEL-28, 0.185 µM): 16%; target mRNA inhibition (SK-MEL-28, 5 µM): 60%; target mRNA inhibition (SK-MEL-28, 15 µM): 85%
CTTGAAAAGCCAATGC (sugars k3 d10 k3, PS) | 58% | –
CTTGAAGAGCGCGGCG (sugars k3 d10 k3, PS) | 21% | –
CTTGAGGTTTTCCTAA (sugars k3 d10 k3, PS) | 40% | –
CTTGATAAAGGCTGAA (sugars kddddddddddkekek, PS) | – | target mRNA inhibition (MM.1R, 1 µM): 17%
CTTGATAAAGGCTGAA (sugars kdddddddddkekeke, PS) | – | target mRNA inhibition (MM.1R, 1 µM): 5%
CTTGGTTCTCTATAGT (sugars k3 d10 k3, PS) | – | target mRNA inhibition (MM.1R, 1 µM): 27%
CTTTAACAAGTCCTCA (sugars k3 d10 k3, PS) | 52% | –
CTTTTACCCACCAAAG (sugars k3 d10 k3, PS) | 18% | –
CTTTTTAGTTCATACC (sugars k3 d10 k3, PS) | 37% | –
GAAAAGCAGCGAAAAG (sugars k3 d10 k3, PS) | 2% | –
GAAAGAATGGCGCATA (sugars k3 d10 k3, PS) | 49% | –
GAAAGATTCAGCCTCT (sugars k3 d10 k3, PS) | 45% | –
GAACACCATGCCCAAC (sugars k3 d10 k3, PS) | 7% | –
GAACACTTTGAGGTGA (sugars k3 d10 k3, PS) | 14% | –
GAACAGTAACTTGACT (sugars k3 d10 k3, PS) | 4% | –
GAACGGAAGTTTACAC (sugars k3 d10 k3, PS) | 67% | –
GAAGAAGGCACCTTCG (sugars k3 d10 k3, PS) | 25% | –
GAAGCACTGGCATCGA (sugars k3 d10 k3, PS) | 44% | –
GAAGCATTTTATCATC (sugars kddddddddddkekek, PS) | – | target mRNA inhibition (MM.1R, 1 µM): -12%
GAAGGATGGGACCGCC (sugars k3 d10 k3, PS) | 41% | –

Sequence | target mRNA inhibition (SK-MEL-28, 4 µM) | further results
GAAGTACGAGCACATG (sugars k3 d10 k3, PS) | – | target mRNA inhibition (MM.1R, 1 µM): 18%
GAAGTTTACACTGGAT (sugars kdddddddddkekeke, PS) | – | target mRNA inhibition (MM.1R, 1 µM): 11%
GAAGTTTACACTGGAT (sugars kkddddddddddkeke, PS) | – | target mRNA inhibition (MM.1R, 1 µM): 46%
GAAGTTTACACTGGAT (sugars kkdddddddddkdkdk, PS) | – | target mRNA inhibition (MM.1R, 1 µM): 23%
GAATAAACACCCCTTC (sugars k3 d10 k3, PS) | 44% | –
GAATGAGGAAGCCGTT (sugars k3 d10 k3, PS) | 39% | –
GACACATTTTCTGGGT (sugars k3 d10 k3, PS) | 53% and 64% | –
GACACTTTTAGAGAGG (sugars k3 d10 k3, PS) | 87% and 78% | –
GACAGATGACATGCTT (sugars k3 d10 k3, PS) | 9% | –
GACAGCCGAAGCATTT (sugars k3 d10 k3, PS) | – | target mRNA inhibition (MM.1R, 1 µM): 6%
GACAGTGACTTGCATC (sugars kdddddddddkekeke, PS) | – | target mRNA inhibition (MM.1R, 1 µM): 0%
GACAGTGACTTGCATC (sugars kkddddddddddkeke, PS) | – | target mRNA inhibition (MM.1R, 1 µM): 25%
GACAGTGACTTGCATC (sugars kkdddddddddkdkdk, PS) | – | target mRNA inhibition (MM.1R, 1 µM): -7%
GACCACAGTGAAGTCG (sugars k3 d10 k3, PS) | 14% | –
GACCACGAGGCCCCGG (sugars k3 d10 k3, PS) | 31% | –
GACCAGAACTAATGTC (sugars k3 d10 k3, PS) | – | target mRNA inhibition (MM.1R, 1 µM): -27%
GACCAGGATTCGCCAT (sugars k3 d10 k3, PS) | 23% | –
GACCTAATCTACAACA (sugars k3 d10 k3, PS) | 33% | –
GACGACTTAAGCTAAA (sugars k3 d10 k3, PS) | 62% | –
GACTACACCTACACAG (sugars k3 d10 k3, PS) | 32% | –
GACTCAAGAAAATAGG (sugars k3 d10 k3, PS) | 64% | –
GACTTAGAGGACAGTG (sugars k3 d10 k3, PS) | 48% | –
GACTTCGGGAGATACG (sugars k3 d10 k3, PS) | 14% | –
GAGCACATGTCAACAG (sugars k3 d10 k3, PS) | 40% | –
GAGCACCAGCCATCGG (sugars k3 d10 k3, PS) | 23% | –

Sequence | target mRNA inhibition (SK-MEL-28, 4 µM) | further results
GAGCACCGCGCCGGAG (sugars k3 d10 k3, PS) | 7% | –
GAGCCTGGGACTCAGG (sugars k3 d10 k3, PS) | 49% | target mRNA inhibition (MM.1R, 0.074 µM): 3%; target mRNA inhibition (MM.1R, 0.222 µM): 4%; target mRNA inhibition (MM.1R, 0.666 µM): -3%; target mRNA inhibition (MM.1R, 2 µM): 7%; target mRNA inhibition (SK-MEL-28, 0.185 µM): 7%; target mRNA inhibition (SK-MEL-28, 5 µM): 58%; target mRNA inhibition (SK-MEL-28, 15 µM): 87%
GAGCGAAGGGTAAGGC (sugars k3 d10 k3, PS) | 38% | –
GAGCTCTTCCAGATCC (sugars k3 d10 k3, PS) | 5% | –
GAGGAATGAGCACTCT (sugars k3 d10 k3, PS) | 26% | –
GAGGGAGCTCATTTTG (sugars k3 d10 k3, PS) | 24% | –
GAGTAAACTTGGCTGT (sugars k3 d10 k3, PS) | 38% | –
GAGTACCCAAGACTCC (sugars k3 d10 k3, PS) | 25% | –
GAGTCACCTGGAATCT (sugars k4 d8 k4, PS) | 6% | –
GAGTGCAGGAGAGGCT (sugars k3 d10 k3, PS) | 31% | –
GATAACCTGAACATGA (sugars k3 d10 k3, PS) | 17% | –
GATAGATCTGTGGTAA (sugars k3 d10 k3, PS) | – | target mRNA inhibition (MM.1R, 1 µM): 22%
GATAGCTGAGCTGATC (sugars k3 d10 k3, PS) | 32% | –
GATAGGAAGCACTGGC (sugars k3 d10 k3, PS) | 62% | –
GATAGGTATACTTAAG (sugars k3 d10 k3, PS) | 51% | –
GATAGTTAAGTACTTG (sugars k3 d10 k3, PS) | 49% | –
GATCATCAATGATGGC (sugars k3 d10 k3, PS) | 63% | –
GATGAGGGACCAGAAC (sugars k3 d10 k3, PS) | 20% | –
GATGTGATAGCTGAGC (sugars kkdddddddddekeke, PS) | – | target mRNA inhibition (MM.1R, 1 µM): 53%
GATTAATTCTCCTATG (sugars k3 d10 k3, PS) | – | target mRNA inhibition (MM.1R, 1 µM): -19%
GATTATATACTGGTTG (sugars kdddddddddkekeke, PS) | – | target mRNA inhibition (MM.1R, 1 µM): 12%
GATTTATGTTCCTTAA (sugars k3 d10 k3, PS) | 47% | –
GATTTCCGGGTGTGGC (sugars k3 d10 k3, PS) | – | target mRNA inhibition (MM.1R, 0.0625 µM): 14%; target mRNA inhibition (MM.1R, 0.25 µM): -11%; target mRNA inhibition (MM.1R, 4 µM): 33%
